The assay deals with BT20 Cell. Kind of assay: Cancer Cell Lysate Total L-Glutamate Assay. The class given is cell-based. Conditions: Homo sapiens, BT-20, 2 h, total L-glutamate in cell lysate, BT20 cells, 2 hour incubation with test compound. Summed up:
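BT20 and other cancer lines at ~80% confluence were given fresh L-glutamine-containing medium, then treated with serially diluted compound (0.5% DMSO) for 2 hours at 37° C. Washed cells were lysed by freeze-thaw and sonication. Lysate glutamate was measured via glutamate oxidase/HRP/50 μM Amplex Red fluorescence (ex 530-560, em 585 nm); IC50 by four-parameter logistic fit.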

This is an account of results in US10676471B2, “Cycloalkyl-linked diheterocycle derivatives” (Pfizer Inc., priority 2014, dated 2020).

Molecules are shown by their SMILES.

For orientation: IC50 means the concentration at which inhibition is half-maximal. A lower IC50 goes with greater potency in that assay.

As for `O=C(Cc1ccccn1)Nc1ccc(C[C@@H]2CC[C@H](c3nnc(Nc4ccccn4)s3)C2)nn1` (single isomer, unassigned) [Example 75, 2-(pyridin-2-yl)-N-[6-({(cis)-3-[5-(pyridin-2-ylamino)-1,3,4-thiadiazol-2-yl]cyclopentyl}methyl)pyridazin-3-yl]acetamide], the IC50 was 1.1 nM. The molecule `CC(C)C(=O)Nc1ccc(C[C@@H]2CC[C@H](c3nnc(NC(=O)Cc4ccccn4)s3)C2)nn1` (single isomer, unassigned) [Example 77, 2-methyl-N-(6-{[(cis)-3-{5-[(pyridin-2-ylacetyl)amino]-1,3,4-thiadiazol-2-yl}cyclopentyl]methyl}pyridazin-3-yl)propanamide] registered a 50% inhibitory concentration (IC50) of 0.4 nM. `CC(C)C(=O)Nc1ccc(C[C@H]2CC[C@@H](c3nnc(NC(=O)Cc4ccccn4)s3)C2)nn1` (single isomer, unassigned) [Example 78, 2-methyl-N-(6-{[(cis)-3-{5-[(pyridin-2-ylacetyl)amino]-1,3,4-thiadiazol-2-yl}cyclopentyl]methyl}pyridazin-3-yl)propanamide] had an IC50 of 3 nM. Molecule `CCC(=O)Nc1ccc(C[C@@H]2CC[C@H](c3nnc(NC(=O)Cc4ccccn4)s3)C2)nn1` (single isomer, unassigned) [Example 79, N-(6-{[(cis)-3-{5-[(pyridin-2-ylacetyl)amino]-1,3,4-thiadiazol-2-yl}cyclopentyl]methyl}pyridazin-3-yl)propanamide] returned an IC50 of 1.1 nM. On to `O=C(Cc1ccccc1)Nc1ccc(C[C@H]2CC[C@@H](c3nnc(NC(=O)Cc4ccccn4)s3)C2)nn1` (single isomer, unassigned) [Example 81, 2-phenyl-N-(6-{[(cis)-3-{5-[(pyridin-2-ylacetyl)amino]-1,3,4-thiadiazol-2-yl}cyclopentyl]methyl}pyridazin-3-yl)acetamide], for which inhibition was half-maximal at 4.5 nM (IC50).

With `O=C(Cc1ccccc1)Nc1ccc(C[C@@H]2CC[C@H](c3nnc(NC(=O)Cc4ccccn4)s3)C2)nn1` (single isomer, unassigned) [Example 82, 2-phenyl-N-(6-{[(cis)-3-{5-[(pyridin-2-ylacetyl)amino]-1,3,4-thiadiazol-2-yl}cyclopentyl]methyl}pyridazin-3-yl)acetamide], the IC50 stood at 0.1 nM.

As for `O=C(Cc1ccccn1)Nc1nnc(C[C@@H]2CC[C@H](c3nnc(Nc4ncccn4)s3)C2)s1` (single isomer, unassigned) [Example 84, 2-(pyridin-2-yl)-N-[5-({(cis)-3-[5-(pyrimidin-2-ylamino)-1,3,4-thiadiazol-2-yl]cyclopentyl}methyl)-1,3,4-thiadiazol-2-yl]acetamide], the IC50 was determined as 0.5 nM. `O=C(Cc1ccccn1)Nc1nnc(C[C@@H]2CC[C@@H](c3nnc(Nc4ccccn4)s3)C2)s1` (single isomer, unassigned) [Example 85, 2-(pyridin-2-yl)-N-[5-({3-[5-(trans)(pyridin-2-ylamino)-1,3,4-thiadiazol-2-yl]cyclopentyl}methyl)-1,3,4-thiadiazol-2-yl]acetamide] gave an IC50 of 8.2 nM.

As to `O=C(Cc1ccccn1)Nc1nnc(C[C@H]2CC[C@@H](c3nnc(Nc4ccccn4)s3)C2)s1` (single isomer, unassigned) [Example 86, 2-(pyridin-2-yl)-N-[5-({(cis)-3-[5-(pyridin-2-ylamino)-1,3,4-thiadiazol-2-yl]cyclopentyl}methyl)-1,3,4-thiadiazol-2-yl]acetamide], it took 4.8 nM to reach half-maximal inhibition (IC50). `Cn1ccc(Nc2nnc([C@H]3CC[C@@H](Cc4nnc(NC(=O)Cc5ccccn5)s4)C3)s2)n1` (single isomer, unassigned) [Example 89, N-(5-{[(cis)-3-{5-[(1-methyl-1H-pyrazol-3-yl)amino]-1,3,4-thiadiazol-2-yl}cyclopentyl]methyl}-1,3,4-thiadiazol-2-yl)-2-(pyridin-2-yl)acetamide]: the IC50 stood at 3.9 nM.

As for `CCC(=O)Nc1ccc(C[C@@H]2CC[C@H](c3nnc(NC(=O)CCOC)s3)C2)nn1` (single isomer, unassigned) [Example 90, 3-methoxy-N-{5-[(cis)-3-{[6-(propanoylamino)pyridazin-3-yl]methyl}cyclopentyl]-1,3,4-thiadiazol-2-yl}propanamide], the midpoint of inhibition, the IC50, lay at 1.3 nM. In the case of `CCC(=O)Nc1ccc(C[C@H]2CC[C@@H](c3nnc(NC(=O)Cc4ccn(C)n4)s3)C2)nn1` (single isomer, unassigned) [Example 91, N-(6-{[(cis)-3-(5-{[(1-methyl-1H-pyrazol-3-yl)acetyl]amino}-1,3,4-thiadiazol-2-yl)cyclopentyl]methyl}pyridazin-3-yl)propanamide], the IC50 was 1.5 nM. `CCC(=O)Nc1ccc(C[C@@H]2CC[C@H](c3nnc(NC(=O)Cc4ccn(C)n4)s3)C2)nn1` (single isomer, unassigned) [Example 92, N-(6-{[(cis)-3-(5-{[(1-methyl-1H-pyrazol-3-yl)acetyl]amino}-1,3,4-thiadiazol-2-yl)cyclopentyl]methyl}pyridazin-3-yl)propanamide]: the IC50 was 0.2 nM. Against the preceding molecule, the IC50 is about 7.5-fold lower. Molecule `CC(=O)Nc1nnc([C@H]2CC3(C[C@H](c4nnc(NC(C)=O)s4)C3)C2)s1` (single isomer, unassigned) [Example 93, N,N′-(spiro[3.3]heptane-2,6-diyldi-1,3,4-thiadiazole-5,2-diyl)diacetamide] gave an IC50 of 10.4 nM. Against the preceding molecule, the IC50 is about 52-fold higher.

`O=C(Cc1ccccn1)Nc1nnc([C@H]2CC3(C[C@H](c4nnc(NC(=O)Cc5ccccn5)s4)C3)C2)s1` (single isomer, unassigned) [Example 99, N,N′-(spiro[3.3]heptane-2,6-diyldi-1,3,4-thiadiazole-5,2-diyl)bis[2-(pyridin-2-yl)acetamide]] had an IC50 of 0.3 nM.

`CCNc1nnc([C@H]2C[C@@H](Cc3ccc(NC(=O)Cc4ccccc4)nn3)C2)s1` (single isomer, unassigned) [Example 100, N-[6-({cis-3-[5-(ethylamino)-1,3,4-thiadiazol-2-yl]cyclobutyl}methyl)pyridazin-3-yl]-2-phenylacetamide] gave an IC50 of 2.4 nM. Consider `CCNc1nnc([C@@H]2CC[C@H](Cc3ccc(NC(=O)Cc4ccccn4)nn3)C2)s1` (single isomer, unassigned) [Example 101, N-[6-({(cis)-3-[5-(ethylamino)-1,3,4-thiadiazol-2-yl]cyclopentyl}methyl)pyridazin-3-yl]-2-(pyridin-2-yl)acetamide], for which inhibition was half-maximal at 339 nM (IC50). In the case of `C[C@H](c1nnc(NC(=O)Cc2ccccn2)s1)[C@H]1C[C@@H](c2nnc(NC(=O)Cc3ccccn3)s2)C1` (single isomer, unassigned) [Example 102, 2-(pyridin-2-yl)-N-{5-[(1-(cis)-3-{5-[(pyridin-2-ylacetyl)amino]-1,3,4-thiadiazol-2-yl}cyclobutyl)ethyl]-1,3,4-thiadiazol-2-yl}acetamide] it was 2 nM. For `C[C@@H](c1nnc(NC(=O)Cc2ccccn2)s1)[C@H]1C[C@@H](c2nnc(NC(=O)Cc3ccccn3)s2)C1` (single isomer, unassigned) [Example 103], the IC50 stood at 0.8 nM. This IC50 is about 2.5-fold lower than that of the molecule before.

For `CC(C)C(=O)Nc1nnc(C[C@H]2C[C@@H](c3nnc(NC(=O)Cc4ccccn4)s3)C2)s1` (single isomer, unassigned) [Example 104, 2-methyl-N-{5-[(cis-3-{5-[(pyridin-2-ylacetyl)amino]-1,3,4-thiadiazol-2-yl}cyclobutyl)methyl]-1,3,4-thiadiazol-2-yl}propanamide], the IC50 was 8.6 nM.

On to `CCC(=O)Nc1nnc([C@H]2C[C@@H](Cc3nnc(NC(=O)Cc4ccccn4)s3)C2)s1` (single isomer, unassigned) [Example 105, N-{5-[cis-3-({5-[(pyridin-2-ylacetyl)amino]-1,3,4-thiadiazol-2-yl}methyl)cyclobutyl]-1,3,4-thiadiazol-2-yl}propanamide], for which inhibition was half-maximal at 9.5 nM (IC50). This IC50 and that of the molecule before are within 1.5-fold of each other. The molecule `CCC(=O)Nc1nnc([C@H]2C[C@H](Cc3nnc(NC(=O)Cc4ccccn4)s3)C2)s1` (single isomer, unassigned) [Example 106, N-{5-[trans-3-({5-[(pyridin-2-ylacetyl)amino]-1,3,4-thiadiazol-2-yl}methyl)cyclobutyl]-1,3,4-thiadiazol-2-yl}propanamide] registered a half-inhibitory concentration (IC50) of 13.7 nM. `CC(=O)Nc1nnc(C[C@H]2C[C@@H](c3nnc(NC(=O)Cc4ccc(C)cn4)s3)C2)s1` (single isomer, unassigned) [Example 107, N-[5-(cis-3-{[5-(acetylamino)-1,3,4-thiadiazol-2-yl]methyl}cyclobutyl)-1,3,4-thiadiazol-2-yl]-2-(5-methylpyridin-2-yl)acetamide] returned an IC50 of 10.1 nM. In the case of `Cc1ccc(CC(=O)Nc2nnc(C[C@H]3C[C@@H](c4nnc(NC(=O)Cc5ccc(C)cn5)s4)C3)s2)nc1` (single isomer, unassigned) [Example 108, 2-(5-methylpyridin-2-yl)-N-(5-{[cis-3-(5-{[(5-methylpyridin-2-yl)acetyl]amino}-1,3,4-thiadiazol-2-yl)cyclobutyl]methyl}-1,3,4-thiadiazol-2-yl)acetamide] it was 0.3 nM; in that of `Cc1ccc(CC(=O)Nc2nnc(C[C@H]3C[C@H](c4nnc(NC(=O)Cc5ccc(C)cn5)s4)C3)s2)nc1` (single isomer, unassigned) [Example 109, 2-(5-methylpyridin-2-yl)-N-(5-{[trans-3-(5-{[(5-methylpyridin-2-yl)acetyl]amino}-1,3,4-thiadiazol-2-yl)cyclobutyl]methyl}-1,3,4-thiadiazol-2-yl)acetamide], 1.3 nM.

Take `O=C(Cc1ccccn1)Nc1ccc(C[C@@H]2CC[C@H](c3nnc(NC4CC4)s3)C2)nn1` (single isomer, unassigned) [Example 110, N-[6-({(cis)-3-[5-(cyclopropylamino)-1,3,4-thiadiazol-2-yl]cyclopentyl}methyl)pyridazin-3-yl]-2-(pyridin-2-yl)acetamide]: inhibition was half-maximal at 2.3 nM (IC50).
